Measured values from PMC8179437 (Chemical Science, 2021).

What was measured:
TDP1 [1] = target: T1, TDP1 (Homo sapiens, UniProt Q9NUW8); assay: TDP1 gel-based in vitro assay; format: biochemical; settings: Table 1 and main text
TDP1 [2] = target: T1, TDP1; assay: TDP1 Lineweaver–Burk analysis; format: biochemical

T1 sequence (Q9NUW8 whole entry): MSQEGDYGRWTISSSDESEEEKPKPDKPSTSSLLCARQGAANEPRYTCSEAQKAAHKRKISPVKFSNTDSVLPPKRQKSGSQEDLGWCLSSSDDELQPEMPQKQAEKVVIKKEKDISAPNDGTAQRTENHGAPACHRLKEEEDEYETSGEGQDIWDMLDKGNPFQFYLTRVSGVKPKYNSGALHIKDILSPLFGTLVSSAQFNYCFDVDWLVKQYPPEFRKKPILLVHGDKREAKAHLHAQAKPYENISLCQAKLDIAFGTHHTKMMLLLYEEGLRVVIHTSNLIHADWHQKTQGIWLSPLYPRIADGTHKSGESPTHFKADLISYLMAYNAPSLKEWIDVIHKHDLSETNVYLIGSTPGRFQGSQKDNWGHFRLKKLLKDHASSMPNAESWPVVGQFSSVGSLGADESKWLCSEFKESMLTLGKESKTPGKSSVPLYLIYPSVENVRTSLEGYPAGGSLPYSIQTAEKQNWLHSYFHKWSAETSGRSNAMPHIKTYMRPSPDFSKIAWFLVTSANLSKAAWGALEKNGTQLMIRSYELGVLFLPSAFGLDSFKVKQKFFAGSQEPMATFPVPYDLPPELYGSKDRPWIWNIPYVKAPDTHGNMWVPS

SMILES	IC50 (TDP1 [1])	mode of inhibition (TDP1 [2])
CS(=O)(=O)c1ccc2nc(-c3ccc(-c4ccccc4)cc3)c(Nc3ccc(C(=O)O)cc3)n2c1 [Compound 8r, 4-((2-([1,1'-Biphenyl]-4-yl)-6-(methylsulfonyl)imidazo[1,2-a]pyridin-3-yl)amino)benzoic acid]	9.95 µM	
CS(=O)(=O)c1ccc2nc(-c3ccccc3)c(Nc3ccc(C(=O)O)cc3)n2c1 [Compound 8q, 4-((6-(Methylsulfonyl)-2-phenylimidazo[1,2-a]pyridin-3-yl)amino)benzoic acid]	1.8 µM	
O=C(O)c1ccc(Nc2c(-c3ccccc3)nc3ccccn23)cc1 [Compound 8a, 4-((2-Phenylimidazo[1,2-a]pyridin-3-yl)amino)benzoic acid]		competitive
c1ccc(Nc2c(-c3ccccc3)nc3ccccn23)cc1 [Compound 6t, N,2-Diphenylimidazo[1,2-a]pyridin-3-amine]	> 100 µM	
O=C(O)c1ccc(Nc2c(-c3ccccc3)nc3cnccn23)cc1 [Compound 7b, 4-((2-Phenylimidazo[1,2-a]pyrazin-3-yl)amino)benzoic acid]		competitive
O=C(O)c1ccc(Nc2c(-c3ccc(C(=O)O)cc3)nc3ccccn23)cc1 [Compound 8h, 4-(3-((4-Carboxyphenyl)amino)imidazo[1,2-a]pyridin-2-yl)benzoic acid]	> 100 µM	
O=C(O)c1ccc(Nc2c(-c3ccc(O)cc3)nc3ccccn23)cc1 [Compound 8f, 4-((2-(4-Hydroxyphenyl)imidazo[1,2-a]pyridin-3-yl)amino)benzoic acid]	> 100 µM	

The remaining lines, values ahead:

IC50 (TDP1 [1])	mode of inhibition (TDP1 [2])	SMILES
> 100 µM		O=C(O)c1ccc(Cn2c(-c3ccccc3)cc3ccccc32)cc1 [Compound 9b, 4-((2-Phenyl-1H-indol-1-yl)methyl)benzoic acid]
	competitive	O=C(O)c1ccc(Nc2c(-c3ccccc3)nc3ccccn23)cc1C(=O)O [Compound 10b, 4-((2-Phenylimidazo[1,2-a]pyridin-3-yl)amino)phthalic acid]
	competitive	O=C(O)c1ccc(Nc2c(-c3ccccc3)nc3cnccn23)cc1C(=O)O [Compound 10a, 4-((2-Phenylimidazo[1,2-a]pyrazin-3-yl)amino)phthalic acid]
> 100 µM		O=C(O)c1ccc(Cn2c(-c3ccccc3)nc3ccccc32)cc1 [Compound 9a, 4-((2-Phenyl-1H-benzo[d]imidazol-1-yl)methyl)benzoic acid]
